Assay results reported in patent US20020035061A1, “COMPOSITIONS AND METHODS FOR TREATING INFECTIONS USING CATIONIC PEPTIDES ALONE OR IN COMBINATION WITH ANTIBIOTICS” (priority 1996, published 2002).
Where two headings read alike, the source gives them in different places.

Key:
Format in all cases: cell-based
E. coli = details: for Peptide MIC values: agarose dilution
E. faecalis = E. faecalis strain EFS002
E. faecium = details: for Peptide MIC values: agarose dilution
H. influenzae = assay: Agarose dilution assay (MIC); details: H. influenzae strain HIN002
P. aeruginosa = details: for Peptide MIC values: agarose dilution
P. vulgaris = assay: Agarose dilution assay (MIC); details: agarose dilution; P. vulgaris ATCC 13315
S. aureus = details: for MIC: S. aureus strain SA004; for Peptide MIC values: agarose dilution
S. marcescens = details: for Peptide MIC values: agarose dilution
S. pneumoniae = assay: Agarose dilution assay (MIC); details: for MIC: S. pneumoniae strain SBSPN3; for Peptide MIC values: agarose dilution
bacterial isolates = assay: microbe, parasite or virus in culture
[1] = test system: inherently resistant microorganisms; assay: microbe, parasite or virus in culture
[2] = test system: microorganisms with acquired resistance; assay: microbe, parasite or virus in culture; details: for Peptide MIC Alone: Tobramycin section; for FIC: peptide + Tobramycin
A. calcoaceticus = A. calcoaceticus strain AC001
E. cloacae = E. cloacae strain ECL007
K. pneumoniae = K. pneumoniae strain KP002
S. epidermidis = S. epidermidis strain SE010
S. maltophilia = S. maltophilia strain SMA002
[3] = E. coli SBECO2, Mupirocin section
[4] = S. aureus SA025 (also SA025 MRSA)
[5] = peptide + Mupirocin, E. coli SBECO2

ILKKWPWWPWK [MBI 11G13CN]
MIC (E. coli; E. coli strain ECO002): 32 µg/mL | MIC (E. coli; E. coli strain SBECO3): 32 µg/mL | Peptide MIC values (E. coli; E. coli ATCC 25922): 64 µg/mL | Peptide MIC values (E. coli; E. coli ESS): 32 µg/mL | Peptide MIC values (E. coli; E. coli NCTC 10418): 16 µg/mL | MIC (E. faecalis): 64 µg/mL | MIC (E. faecium; E. faecium strain EFM002): 16 µg/mL | Peptide MIC values (E. faecium): 32 µg/mL | MIC (H. influenzae): >128 µg/mL | MIC (P. aeruginosa; P. aeruginosa strain PA004): >128 µg/mL | Peptide MIC values (P. aeruginosa; P. aeruginosa ATCC 27853): >128 µg/mL | Peptide MIC values (P. aeruginosa; P. aeruginosa NCTC 10662): >128 µg/mL | Peptide MIC values (P. vulgaris): >128 µg/mL | MIC (S. aureus): 4 µg/mL | Peptide MIC values (S. aureus; S. aureus ATCC 29213): 1 µg/mL | Peptide MIC values (S. aureus; S. aureus MRSA9): 8 µg/mL | Peptide MIC values (S. aureus; S. aureus MRSA13): 64 µg/mL | Peptide MIC values (S. aureus; S. aureus MRSA17): 16 µg/mL | Peptide MIC values (S. aureus; S. aureus SA206): 32 µg/mL | MIC (S. marcescens; S. marcescens strain SBSM1): >128 µg/mL | Peptide MIC values (S. marcescens; S. marcescens SM76): >128 µg/mL | Peptide MIC values (S. marcescens; S. marcescens SM82): >128 µg/mL | MIC (S. pneumoniae): 128 µg/mL | Peptide MIC values (S. pneumoniae; S. pneumoniae 406LE8): 128 µg/mL | Peptide MIC values (S. pneumoniae; S. pneumoniae 60120): >128 µg/mL | Peptide MIC values (S. pneumoniae; S. pneumoniae ATCC 49619): 128 µg/mL | Peptide MIC + Tobramycin (bacterial isolates; A. baumannii ABI001): 32 µg/mL | Tobramycin MIC + Peptide (bacterial isolates; A. baumannii ABI001): 4 µg/mL | Peptide MIC Alone (bacterial isolates; A. baumannii ABI001, Tobramycin section): 128 µg/mL | Mupirocin MIC + Peptide (bacterial isolates; E. coli ECO5): 30 µg/mL | Peptide MIC + Mupirocin (bacterial isolates; E. coli ECO5): 8 µg/mL | Peptide MIC Alone (bacterial isolates; E. coli ECO5, Mupirocin section): 64 µg/mL | Mupirocin MIC + Peptide (bacterial isolates; E. coli SBECO2): 30 µg/mL | Peptide MIC + Mupirocin (bacterial isolates; E. coli SBECO2): 8 µg/mL | Peptide MIC Alone (bacterial isolates; [3]): 64 µg/mL | Peptide MIC + Tobramycin (bacterial isolates; P. aeruginosa PA022): 16 µg/mL | Tobramycin MIC + Peptide (bacterial isolates; P. aeruginosa PA022): 4 µg/mL | Peptide MIC Alone (bacterial isolates; P. aeruginosa PA022, Tobramycin section): >128 µg/mL | Peptide MIC + Tobramycin (bacterial isolates; [4]): 2 µg/mL | Tobramycin MIC + Peptide (bacterial isolates; [4]): 0.125 µg/mL | Peptide MIC Alone (bacterial isolates; S. aureus SA025 (also SA025 MRSA), Tobramycin section): 4 µg/mL | Peptide MIC + Tobramycin (bacterial isolates; S. maltophilia SMA029): 0.125 µg/mL | Tobramycin MIC + Peptide (bacterial isolates; S. maltophilia SMA029): 64 µg/mL | Peptide MIC Alone (bacterial isolates; S. maltophilia SMA029, Tobramycin section): >128 µg/mL | Peptide MIC + Tobramycin (bacterial isolates; S. maltophilia SMA030): 0.125 µg/mL | Tobramycin MIC + Peptide (bacterial isolates; S. maltophilia SMA030): 64 µg/mL | Peptide MIC Alone (bacterial isolates; S. maltophilia SMA030, Tobramycin section): >128 µg/mL | FIC (bacterial isolates; peptide + Mupirocin, E. coli ECO5): 0.43 | FIC (bacterial isolates; [5]): 0.16 | FIC (bacterial isolates; peptide + Tobramycin, A. baumannii ABI001): 0.50 | FIC (bacterial isolates; peptide + Tobramycin, P. aeruginosa PA022): 0.56 | FIC (bacterial isolates; peptide + Tobramycin, S. aureus SA025 (also SA025 MRSA)): 0.50 | FIC (bacterial isolates; peptide + Tobramycin, S. maltophilia SMA029): 0.50 | FIC (bacterial isolates; peptide + Tobramycin, S. maltophilia SMA030): 0.50 | Peptide MIC + Tobramycin ([1]; S. aureus): 2 µg/mL | Peptide MIC Alone ([1]; S. aureus, Tobramycin section): 4 µg/mL | FIC ([1]; peptide + Tobramycin, S. aureus): 0.50 | Peptide MIC + Tobramycin ([2]; A. baumannii ABI001): 32 µg/mL | Tobramycin MIC + Peptide ([2]; A. baumannii ABI001): 4 µg/mL | Peptide MIC Alone ([2]; A. baumannii ABI001): 128 µg/mL | Peptide MIC ([2]; E. faecium, combination with Mupirocin, in µg/mL): 32 | Peptide MIC + Tobramycin ([2]; P. aeruginosa PA022): 16 µg/mL | Tobramycin MIC + Peptide ([2]; P. aeruginosa PA022): 4 µg/mL | Peptide MIC Alone ([2]; P. aeruginosa PA022): >128 µg/mL | FIC ([2]; A. baumannii ABI001): 0.50 | FIC ([2]; P. aeruginosa PA022): 0.56

ILKKWPWWPWRK [MBI 11B4CN]
MIC (A. calcoaceticus): >128 µg/mL | MIC (E. cloacae): >128 µg/mL | MIC (E. coli; E. coli strain ECO003): 16 µg/mL | Peptide MIC values (E. coli; E. coli ATCC 25922): 32 µg/mL | Peptide MIC values (E. coli; E. coli ESS): 8 µg/mL | Peptide MIC values (E. coli; E. coli NCTC 10418): 8 µg/mL | MIC (E. faecalis): 16 µg/mL | Peptide MIC values (E. faecium): 8 µg/mL | MIC (H. influenzae): >128 µg/mL | MIC (K. pneumoniae): 128 µg/mL | MIC (P. aeruginosa; P. aeruginosa strain PA006): >128 µg/mL | Peptide MIC values (P. aeruginosa; P. aeruginosa ATCC 27853): >128 µg/mL | Peptide MIC values (P. aeruginosa; P. aeruginosa NCTC 10662): >128 µg/mL | Peptide MIC values (P. vulgaris): >128 µg/mL | MIC (S. aureus): 2 µg/mL | Peptide MIC values (S. aureus; S. aureus ATCC 29213): 1 µg/mL | Peptide MIC values (S. aureus; S. aureus MRSA9): 4 µg/mL | Peptide MIC values (S. aureus; S. aureus MRSA13): 32 µg/mL | Peptide MIC values (S. aureus; S. aureus MRSA17): 8 µg/mL | Peptide MIC values (S. aureus; S. aureus SA206): 16 µg/mL | MIC (S. epidermidis): 4 µg/mL | MIC (S. maltophilia): 64 µg/mL | MIC (S. marcescens; S. marcescens strain SBSM2): >128 µg/mL | MIC (S. marcescens; S. marcescens strain SMS004): >128 µg/mL | Peptide MIC values (S. marcescens; S. marcescens SM76): >128 µg/mL | Peptide MIC values (S. marcescens; S. marcescens SM82): >128 µg/mL | MIC (S. pneumoniae): 128 µg/mL | Peptide MIC values (S. pneumoniae; S. pneumoniae 406LE8): 128 µg/mL | Peptide MIC values (S. pneumoniae; S. pneumoniae 60120): >128 µg/mL | Peptide MIC values (S. pneumoniae; S. pneumoniae ATCC 49619): 64 µg/mL | Mupirocin MIC + Peptide (bacterial isolates; E. coli SBECO1): 30 µg/mL | Peptide MIC + Mupirocin (bacterial isolates; E. coli SBECO1): 0.5 µg/mL | Peptide MIC Alone (bacterial isolates; E. coli SBECO1, Mupirocin section): 8 µg/mL | Mupirocin MIC + Peptide (bacterial isolates; E. coli SBECO2): 30 µg/mL | Peptide MIC + Mupirocin (bacterial isolates; E. coli SBECO2): 2 µg/mL | Peptide MIC Alone (bacterial isolates; [3]): 32 µg/mL | FIC (bacterial isolates; peptide + Mupirocin, E. coli SBECO1): 0.36 | FIC (bacterial isolates; [5]): 0.09 | Peptide MIC + Mupirocin ([1]; E. coli): 8 µg/mL | Peptide MIC Alone ([1]; E. coli, Mupirocin section): 16 µg/mL | FIC ([1]; peptide + Mupirocin, E. coli): 0.53
